Common to all, as to assay: NCI anticancer screen, dose series, 48 h
Experiment [1] has as its system IGROV1 ovarian.
Experiment [2] has as its system NCI/ADR-RES ovarian.
The subject of experiment [3] is TK-10 renal.
In experiment [4] the test system is A549 NSCLC.
Experiment [5] has as its system T-47D breast.
In experiment [6] the test system is HCC-2998 colon.
Experiment [7] has as its system CAKI-1 renal.
Experiment [8] deals with MALME-3M melanoma.
Experiment [9] has as its system MCF7 breast.
For experiment [10], the system named is HT29 colon.
Experiment [11] concerns SW-620 colon.
Experiment [12] deals with SF-539 CNS.
Experiment [13] has as its system SF-268 CNS.
The subject of experiment [14] is UACC-257 melanoma.
The test system of experiment [15] is RPMI-8226 leukemia.
Experiment [16] concerns MOLT-4 leukemia.
Experiment [17] deals with SK-MEL-28 melanoma.
The test system of experiment [18] is K-562 leukemia.

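Values below derive from 48-hour exposures of cells grown in 96-well plates, with endpoints linearly interpolated between the two concentrations bracketing the appropriate inhibition level. TGI denotes the concentration required for complete inhibition of growth.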

On to `CC(C)=NOC(=O)Nc1cccc2c1OCO2`, for which the TGI in experiment [1], in experiment [2], in [3], in [4], in experiment [5] and in experiment [6] was more than 100 µM in each case. Also, the TGI in [7], in experiment [8], in [9], in [10], in experiment [11] and in [12] was more than 100 µM in each case. In addition, the TGI in experiment [13], in experiment [14], in [15], in experiment [16] and in [17] was more than 100 µM in each case.

As to `O=C1CC(c2ccccc2)S(=O)c2ccccc2N1` (stereo not given), the TGI in experiment [1], in experiment [2], in experiment [3], in [4], in experiment [5] and in experiment [7] was more than 100 µM each time. In addition, the TGI in experiment [8], in experiment [9], in [18], in experiment [10], in [13] and in [14] was more than 100 µM throughout. Also, the TGI in experiment [15], in experiment [16] and in [17] was more than 100 µM in each case.

As for `O=C(Nc1ccc(Cl)cc1)c1cc(S(=O)(=O)Nc2n[nH]c(=O)n2-c2ccccc2)c(S)cc1Cl`, the TGI in experiment [1], in experiment [2], in experiment [4], in experiment [5], in experiment [6] and in experiment [7] was more than 100 µM in each case. Besides, the TGI in experiment [8], in [9], in experiment [10], in [11], in experiment [12] and in experiment [13] was more than 100 µM in each case. In addition, the TGI in experiment [14], in experiment [15], in [16] and in [17] was more than 100 µM each time.

Take `CN(C)CN(C)c1nc(N(C)C)nc(N(C)CN(C)C)n1`: the TGI in experiment [1] is more than 100 µM; in experiment [3], more than 100 µM; in experiment [4], more than 100 µM; in [6], more than 100 µM; in [7], more than 100 µM; in experiment [18], 67.3 µM. The TGI is more than 100 µM in experiment [10]; 57.3 µM in experiment [11]; more than 100 µM in [12]; more than 100 µM in experiment [13]; more than 100 µM in experiment [14]; 67.2 µM in experiment [15]. Further, the TGI was 69.5 µM in [16] and 83.6 µM in experiment [17].

On to `CCOC(=O)C(C)N1C(=O)c2ccccc2S1(=O)=O` (stereo not given), for which the TGI in [1], in experiment [2], in [4], in experiment [6], in [7] and in experiment [8] was more than 100 µM in each case. Also, the TGI in experiment [9], in [18], in experiment [10], in experiment [11], in experiment [12] and in experiment [13] was more than 100 µM each time. Further, the TGI in [14], in experiment [15], in [16] and in experiment [17] was more than 100 µM in each case.

Take `CN1CCC2(CC1)C(=NC1CCCCC1)NC(=O)N2c1ccccc1`: the TGI in [1], in [2], in experiment [3], in experiment [4], in [5] and in experiment [6] was more than 100 µM throughout. The TGI in [8], in [9], in experiment [10], in [11], in experiment [13] and in experiment [14] was more than 100 µM in each case. For the same compound, the TGI in experiment [15], in experiment [16] and in experiment [17] was more than 100 µM in each case.

With `CN/N=C(\C(=O)Nc1ccc(C)c(C)c1)C(C(=O)OC)c1nc2ccc([N+](=O)[O-])cc2[nH]c1=O` (stereo not given), the TGI in [1], in [3], in [4], in experiment [6], in [7] and in experiment [18] was more than 100 µM in each case. The TGI in experiment [10], in [11], in [12], in experiment [13], in experiment [14] and in experiment [15] was more than 100 µM in each case. The TGI in experiment [16] and in [17] was more than 100 µM throughout.

With `CN1CN(C(=O)N2CN(C)C(=O)N(C)C2)CN(C)C1=O`, the TGI in experiment [1], in experiment [4], in [6], in experiment [7], in experiment [8] and in [18] was more than 100 µM throughout. The TGI in experiment [10], in [11], in [12], in experiment [13], in [14] and in [15] was more than 100 µM in each case. For the same compound, the TGI in experiment [16] and in [17] was more than 100 µM each time.

As for `CCOC(=O)C1=C(C)N(C2OC(COC(=O)c3ccccc3)C(OC(=O)c3ccccc3)C2OC(=O)c2ccccc2)C(=S)NC1c1ccccc1` (stereo not given), the TGI was more than 100 µM in [1]; more than 100 µM in experiment [4]; more than 100 µM in experiment [6]; 79.4 µM in experiment [7]; 78.8 µM in [8]; 91.7 µM in experiment [18]. For the same compound, the TGI was more than 100 µM in experiment [10]; more than 100 µM in [11]; more than 100 µM in experiment [12]; more than 100 µM in [13]; more than 100 µM in [14]; 45.2 µM in [15]. For the same compound, the TGI was 80.6 µM in experiment [16] and more than 100 µM in [17].

(Values after PubChem BioAssay (NCI).)
